We go through 7 compounds from paper PMC10745768, “Stereoselective Synthesis and Antiproliferative Activity of Steviol-Based Diterpene 1,3-Aminoalcohol Regioisomers” (Molecules, 2023).

The subject of one data set is HeLa cells. Kind of data set: MTT antiproliferative assay, HeLa. Format: cell-based. To be noted: Homo sapiens, 72 h; for inhibition at 10 µM / inhibition at 30 µM: read-out: Growth inhibition (%) ± SEM. On the procedure:
(§1) The in vitro anticancer effects of the presented compounds were assessed using the standard MTT [3-(4,5-dimethylthiazol2-yl)-2,5-diphenyltetrazolium bromide] assay on the following human cancer cell lines: cervical (HeLa and SiHa), breast (MCF-7 and MDA-MB-231) and ovarian cancer (A2780). The selectivity of the tested compounds was determined on murine embryonal fibroblast cells (NIH/3T3). The utilised cell lines were purchased from the European Collection of Cell Cultures (Salisbury, UK). The cells were cultivated in Eagle’s minimal essential medium supplemented with 10% fetal bovine serum, 1% non-essential amino acids and 1% antibiotic-antimycotic complex (penicillin, streptomycin, amphotericin B) at 37 °C in a humidified atmosphere containing 5% CO2. All media and supplements were purchased from Lonza Group Ltd. (Basel, Switzerland). The cancer cells were seeded into 96-well plates (5000 cells/well) and incubated overnight, and the test compounds were applied in two different concentrations (10 µM and 30 µM) and incubated for another 72 h under cell-culturing conditions. […] After 72 h, 20 µL of the 5 mg/mL MTT solution was added to each well, and the plates were incubated for 4 h. The medium was removed, and the formazan crystals produced by the mitochondrial activity were dissolved in dimethyl sulfoxide (DMSO) via shaking at 37 °C for 30 min. The absorbances were measured at 545 nm using a microplate reader (SPECTROStar Nano, BMG Labtech, Offenburg, Germany). The reference agent was cisplatin, which is a widely used cytotoxic agent. The IC50 values were calculated using sigmoid curve fitting. Two independent experiments were performed with five parallel wells for each condition. Calculations were performed using the GraphPad Prism 9 software (GraphPad Software Inc., San Diego, CA, USA).

The next data set relates to SiHa cells. The data set can be described thus: MTT antiproliferative assay, SiHa. Format: cell-based. To be noted: Homo sapiens, 72 h; for inhibition at 10 µM / inhibition at 30 µM: read-out: Growth inhibition (%) ± SEM. On the procedure: as §1
Another data set concerns MCF-7 cells. Kind of data set: MTT antiproliferative assay, MCF-7. The data set is classed as cell-based. To be noted: Homo sapiens, MCF7; for inhibition at 10 µM: MCF-7, 10 μM; for inhibition at 10 µM / inhibition at 30 µM: 72 h, read-out: Growth inhibition (%) ± SEM; for inhibition at 30 µM: MCF-7, 30 μM. On the procedure: as §1
In another data set the test system is MDA-MB-231 cells. The data set can be described thus: MTT antiproliferative assay, MDA-MB-231. Format: cell-based. To be noted: Homo sapiens; for inhibition at 10 µM: MDA-MB-231, 10 μM; for inhibition at 10 µM / inhibition at 30 µM: 72 h, read-out: Growth inhibition (%) ± SEM; for inhibition at 30 µM: MDA-MB-231, 30 μM. Here is the method: as §1
For the next data set, the system named is A2780 cells. Kind of data set: MTT antiproliferative assay, A2780. Format: cell-based. To be noted: Homo sapiens; for inhibition at 10 µM: A2780, 10 μM; for inhibition at 10 µM / inhibition at 30 µM: 72 h, read-out: Growth inhibition (%) ± SEM; for inhibition at 30 µM: A2780, 30 μM. On the procedure:
as §1

The next data set concerns NIH/3T3 fibroblast cells. The data set can be described thus: MTT assay on non-malignant fibroblasts (selectivity). The data set is classed as cell-based, murine. To be noted: Mus musculus, NIH3T3; for inhibition at 10 µM: NIH/3T3, 10 μM; for inhibition at 10 µM / inhibition at 30 µM: 72 h, read-out: Growth inhibition (%) ± SEM; for inhibition at 30 µM: NIH/3T3, 30 μM. On the procedure:
as §1

For data set [1], the system named is human cancer cell lines (HeLa, SiHa, MCF-7, MDA-MB-231, A2780). The data set can be described thus: MTT antiproliferative assay, panel of malignant cells. To be noted: 30 μM. Format: cell-based. Here is the method:
as §1

Some results are limits rather than exact numbers.

Compound `COC(=O)[C@]1(C)CCC[C@@]2(C)[C@@H]3CC[C@@]4(CN=[N+]=[N-])C[C@]3(CC[C@@H]21)CC4=O` [Compound 19, (4R,4aS,6aR,9S,11aR,11bS)-Methyl 9-(azidomethyl)-4,11b-dimethyl-8-oxotetradecahydro-6a,9-methanocyclohepta[a]naphthalene-4-carboxylate] gave a melting point of 97 to 99 °C. Further, in the data set on HeLa cells, the inhibition at 10 µM came to 31.6 ± 1.34% and the inhibition at 30 µM amounted to 46.86 ± 0.27%. Moreover, in the data set with SiHa cells, the inhibition at 10 µM is < 20% and the inhibition at 30 µM is < 20%. Further, in the data set on MCF-7 cells, the inhibition at 10 µM is < 20% and the inhibition at 30 µM is 38 ± 1.36%. For the same compound, in the data set on MDA-MB-231 cells, the inhibition at 10 µM was < 20% and the inhibition at 30 µM was < 20%. Moreover, in the data set with A2780 cells, the inhibition at 10 µM was < 20% and the inhibition at 30 µM is 41.7 ± 1.99%. Besides, in the data set with NIH/3T3 fibroblast cells, the inhibition at 10 µM was < 20% and the inhibition at 30 µM is < 20%. In addition, the “antiproliferative action at higher concentration (in words)” value in data set [1] is “no substantial action”.
In the case of `COC(=O)[C@]1(C)CCC[C@@]2(C)[C@@H]3CC[C@@]4(Cn5cc(-c6ccccc6)nn5)C[C@]3(CC[C@@H]21)CC4=O` [Compound 33, (4R,4aS,6aR,9S,11aR,11bS)-Methyl 4,11b-dimethyl-8-oxo-9-((4-phenyl-1H-1,2,3-triazol-1-yl)methyl)tetradecahydro-6a,9-methanocyclohepta[a]naphthalene-4-carboxylate], the melting point lay within 137 to 140 °C. Further, in the data set on HeLa cells, the inhibition at 10 µM was < 20% and the inhibition at 30 µM came to 23.9 ± 5.01%. Also, in the data set on SiHa cells, the inhibition at 10 µM is < 20% and the inhibition at 30 µM is < 20%. In the data set on MCF-7 cells, the inhibition at 10 µM stood at 57.1 ± 2.13% and the inhibition at 30 µM is 60.3 ± 3.65%. In the data set with MDA-MB-231 cells, the inhibition at 10 µM is < 20% and the inhibition at 30 µM was < 20%. In the data set with A2780 cells, the inhibition at 10 µM came out at 41.1 ± 1.23% and the inhibition at 30 µM worked out at 51.5 ± 1.41%. Also, in the data set with NIH/3T3 fibroblast cells, the inhibition at 10 µM was 54.5 ± 1.93% and the inhibition at 30 µM came to 78.9 ± 2.52%.
With `COC(=O)C1(C)CCCC2(C)C3CCC4(CN)CC3(CCC12)CC4O` [Compound 31, (4. R,4aS,6aR,8R,9S,11aR,11bS)-Methyl 9-(aminomethyl)-8-hydroxy-4,11b-dimethyltetradecahydro-6a,9-methanocyclohepta[a]naphthalene-4-carboxylate], the melting point lay within 64 to 68 °C. In the data set on HeLa cells, the inhibition at 10 µM is < 20% and the inhibition at 30 µM was 96.02 ± 0.89%. For the same compound, in the data set on SiHa cells, the inhibition at 10 µM was < 20% and the inhibition at 30 µM was 95.68 ± 0.81%. Also, in the data set on MCF-7 cells, the inhibition at 10 µM was 72.7 ± 3.15% and the inhibition at 30 µM was 99.42 ± 0.23%. In the data set on MDA-MB-231 cells, the inhibition at 10 µM was found to be 49.5 ± 3.47% and the inhibition at 30 µM was found to be 96.82 ± 0.65%. Further, in the data set on A2780 cells, the inhibition at 10 µM came out at 37.3 ± 1.04% and the inhibition at 30 µM is 97.52 ± 0.8%. In addition, in the data set with NIH/3T3 fibroblast cells, the inhibition at 10 µM is < 20% and the inhibition at 30 µM was found to be 97.62 ± 0.71%.
Compound `COC(=O)[C@]1(C)CCC[C@@]2(C)[C@@H]3CC[C@@]4(Cn5cc(-c6ccccc6)nn5)C[C@]3(CC[C@@H]21)C[C@H]4O` [Compound 35, (4R,4aS,6aR,8R,9S,11aR,11bS)-Methyl 8-hydroxy-4,11b-dimethyl-9-((4-phenyl-1H-1,2,3-triazol-1-yl)methyl)tetradecahydro-6a,9-methanocyclohepta[a]naphthalene-4-carboxylate] returned a melting point of 154 to 156 °C. Moreover, in the data set on HeLa cells, the inhibition at 10 µM was < 20% and the inhibition at 30 µM is 88.11 ± 0.75%. In the data set with SiHa cells, the inhibition at 10 µM is < 20% and the inhibition at 30 µM was determined as 81.4 ± 2.84%. Further, in the data set on MCF-7 cells, the inhibition at 10 µM was 70 ± 3.11% and the inhibition at 30 µM stood at 88.79 ± 0.44%. Further, in the data set with MDA-MB-231 cells, the inhibition at 10 µM is < 20% and the inhibition at 30 µM worked out at 92.44 ± 0.59%. In the data set with A2780 cells, the inhibition at 10 µM is 43.2 ± 1.63% and the inhibition at 30 µM stood at 97.37 ± 0.38%. In addition, in the data set with NIH/3T3 fibroblast cells, the inhibition at 10 µM was 54.8 ± 1.4% and the inhibition at 30 µM came to 93 ± 1.01%.
On to `CC[C@H](N[C@@H]1C[C@]23CC[C@H]4[C@@](C)(CCC[C@@]4(C)C(=O)OC)[C@@H]2CC[C@@]1(CO)C3)c1ccccc1` [Compound 11, (4R,4aS,6aR,8R,9R,11aR,11bS)-Methyl 9-(hydroxymethyl)-4,11b-dimethyl-8-(((S)-1-phenylpropyl)amino)tetradecahydro-6a,9-methanocyclohepta[a]naphthalene-4-carboxylate], for which the melting point lay in the range of 88 to 95 °C. In the data set on HeLa cells, the inhibition at 10 µM is < 20% and the inhibition at 30 µM worked out at 94.48 ± 0.84%. Besides, in the data set on SiHa cells, the inhibition at 10 µM was < 20% and the inhibition at 30 µM is 83.7 ± 3.19%. For the same compound, in the data set on MCF-7 cells, the inhibition at 10 µM turned out to be 49.5 ± 3.06% and the inhibition at 30 µM is 96.94 ± 0.57%. Also, in the data set on MDA-MB-231 cells, the inhibition at 10 µM was < 20% and the inhibition at 30 µM stood at 90.8 ± 1.35%. In the data set with A2780 cells, the inhibition at 10 µM was determined as 74.2 ± 2.1% and the inhibition at 30 µM turned out to be 98.12 ± 0.3%. For the same compound, in the data set on NIH/3T3 fibroblast cells, the inhibition at 10 µM turned out to be 22.2 ± 2.22% and the inhibition at 30 µM worked out at 93.6 ± 2.02%.
In the case of `COC(=O)[C@]1(C)CCC[C@@]2(C)[C@@H]3CC[C@@]4(CNCc5ccccc5)C[C@]3(CC[C@@H]21)C[C@H]4O` [Compound 22, (4R,4aS,6aR,8R,9S,11aR,11bS)-Methyl 9-((benzylamino)methyl)-8-hydroxy-4,11b-dimethyltetradecahydro-6a,9-methanocyclohepta[a]naphthalene-4-carboxylate], the melting point was in the range of 98 to 104 °C. In the data set with HeLa cells, the inhibition at 10 µM is 59.2 ± 6.61% and the inhibition at 30 µM was 90.87 ± 0.35%. In addition, in the data set with SiHa cells, the inhibition at 10 µM amounted to 69 ± 2.02% and the inhibition at 30 µM turned out to be 80.8 ± 2.91%. Moreover, in the data set on MCF-7 cells, the inhibition at 10 µM is 90.6 ± 0.98% and the inhibition at 30 µM stood at 94.23 ± 0.82%. Further, in the data set with MDA-MB-231 cells, the inhibition at 10 µM was found to be 90.95 ± 0.4% and the inhibition at 30 µM was determined as 89.66 ± 0.28%. Further, in the data set with A2780 cells, the inhibition at 10 µM turned out to be 69.5 ± 3.98% and the inhibition at 30 µM came out at 96.04 ± 0.45%. Further, in the data set with NIH/3T3 fibroblast cells, the inhibition at 10 µM was found to be 49 ± 1.37% and the inhibition at 30 µM was 94.25 ± 0.45%.
Regarding `COC(=O)[C@]1(C)CCC[C@@]2(C)[C@@H]3CC[C@@]4(CO)C[C@]3(CC[C@@H]21)C[C@H]4N[C@H](C)c1ccc2ccccc2c1` [Compound 17, (4R,4aS,6aR,8R,9R,11aR,11bS)-Methyl 9-(hydroxymethyl)-4,11b-dimethyl-8-(((R)-1-(naphthalen-2-yl)ethyl)amino)tetradecahydro-6a,9-methanocyclohepta[a]naphthalene-4-carboxylate], the melting point lay in the range of 150 to 153 °C. Also, in the data set on HeLa cells, the inhibition at 10 µM was found to be 90.5 ± 1.34% and the inhibition at 30 µM is 93.5 ± 2.5%. Also, the IC50 in the data set on HeLa cells (read-out: calculated IC50) was 3.51 µM. In the data set with SiHa cells, the inhibition at 10 µM is 83.3 ± 1.58% and the inhibition at 30 µM stood at 86.7 ± 1.74%. For the same compound, the IC50 in the data set with SiHa cells (read-out: calculated IC50) was 5.37 µM. For the same compound, in the data set with MCF-7 cells, the inhibition at 10 µM amounted to 86.3 ± 2.86% and the inhibition at 30 µM amounted to 97.42 ± 0.71%. Further, the IC50 in the data set with MCF-7 cells (MCF-7, 72 h, read-out: calculated IC50) was 2470 nM. Besides, the IC50 in the data set with MDA-MB-231 cells (MDA-MB-231, 72 h, read-out: calculated IC50) is 5.62 µM. Further, in the data set with MDA-MB-231 cells, the inhibition at 10 µM was found to be 91.5 ± 1.24% and the inhibition at 30 µM was found to be 95.03 ± 0.91%. Further, the IC50 in the data set on A2780 cells (A2780, 72 h, read-out: calculated IC50) is 4.06 µM. For the same compound, in the data set on A2780 cells, the inhibition at 10 µM worked out at 100.6 ± 0.76% and the inhibition at 30 µM was determined as 100 ± 0.91%. In the data set with NIH/3T3 fibroblast cells, the inhibition at 10 µM is 20.5 ± 1.7% and the inhibition at 30 µM came to 96.54 ± 0.62%. Also, the IC50 in the data set with NIH/3T3 fibroblast cells (NIH/3T3, 72 h, read-out: calculated IC50) was 8.7 µM.
